Earlier results as cited in patent US20230017920A1, “SHELF-STABLE HYPOCHLOROUS ACID” (priority 2019, published 2023).

Test system: individual bacterial cells
Conditions: various studies, H Park et al., Int J Food Microbiol 91 (2004) 13-18

**Q.** For `OCl` [HOCl, hypochlorous acid], which “time to kill individual bacterial cells” value is on record?
**A.** Its value is “within seconds”.
